Earlier results, collected in patent US7705151B2, “1,6 Naphthridines useful as inhibitors of SYK kinase” (Boehringer Ingelheim Pharmaceuticals, Inc., priority 2001, dated 2010).

Assays:
[1] = tested on: human mast cells
[2] = tested on: rodent mast cells

## Cc1ccc2c(=O)c3ccccc3n(CCCN)c2c1C.O=C(O)C(=O)O [ER-27319, 3,4-dimethyl-10-(3-aminopropyl)-9-acridone oxalate]
[1]
  inhibition of anti-IgE mediated degranulation: inhibit anti-IgE mediated degranulation
[2]
  inhibition of anti-IgE mediated degranulation: inhibit anti-IgE mediated degranulation
